Earlier results as cited in patent US20060153908A1, “Spherical pellet formulations” (priority 2002, published 2006).
Where a name gives a salt, the structure may show the parent alone.

Conditions: in water

COc1cccc(C2(O)CCCCC2CN(C)C)c1 (single isomer, unassigned) [Tramadol hydrochloride, (1R,2R or 1S,2S)-2-[(dimethylamino)methyl]-1-(3-methoxyphenyl)-cyclohexanol]
water solubility: very water-soluble
